# Laboratory results reported in patent US8815852B2, “Carbamoyloxy arylalkan arylpiperazine analgesics” (SK Biopharmaceuticals Co., Ltd., priority 2007, dated 2014).
# Where two headings read alike, the source gives them in different places.
# How the values were obtained:
# male ICR mouse [1] = assay: Acetic acid-induced writhing test in mouse; assay type: in vivo; settings: Mus musculus; for inhibition in vivo at 10 mg/kg: at 10 po (method: 10 mg/kg oral, 1 hour before acetic acid), read-out: AA Writhing: Suppression ratio of Pain response; for ED50: unit not given (method doses in mg/kg), read-out: AA Writhing: ED50
# Description: 2. Acetic Acid-Induced Writhing Test in Mouse
# An acetic acid-induced writhing test is one of models for measuring an analgesic effect of drugs. A test material dissolved in a suitable vehicle was orally administered to a male ICR mouse weighing 30 to 35 g at an amount of 10 mg/kg. After 1 hour of the oral administration, […] of an aqueous 0.8% acetic acid solution was intraperitoneally injected into the male ICR mouse to induce the abdominal pain of the male ICR mouse. Right after the administration of acetic acid, the male ICR mouse was put into an empty cage, and the number of writhing behaviors of the mice was counted for 10 minutes. The term “writhing represents a reflex action in which the mouse overtly extends its abdomen by stretching its hind legs due to the abdominal pain. The analgesic effect of the test material is represented by the ‘suppression ratio of pain response’ {[(Writhing number of Vehicle-administered group−Writhing number of Test material-administered group)/(Writhing number of Vehicle-administered group)]×100%} or 50% of Effective amount (ED50 (median effective dose); an amount of test material that is required to suppress 50% of pain behaviors) of Test material. The ED50 (median effective dose) was determined by calculating the suppression ratio of pain response in at least three doses of test materials and subjecting to the linear regression.
# 5-HT1A receptor = 5-HT1A receptor (Rattus norvegicus (Rat), UniProt P19327); assay: Binding to 5-HT1A receptor ([3H]-8-OH-DPAT, rat cortical membranes); set-up: species or system Sprague-Dawley (SD) rats; settings: for inhibition at 1 µM: 1 h, read-out: 5-HT1A: Suppression; for IC50: 2 nM [3H]-8-OH-DPAT, read-out: 5-HT1A: IC50 (Concentration required to be 50% suppressed)
# Chain of 5-HT1A receptor (P19327 whole entry): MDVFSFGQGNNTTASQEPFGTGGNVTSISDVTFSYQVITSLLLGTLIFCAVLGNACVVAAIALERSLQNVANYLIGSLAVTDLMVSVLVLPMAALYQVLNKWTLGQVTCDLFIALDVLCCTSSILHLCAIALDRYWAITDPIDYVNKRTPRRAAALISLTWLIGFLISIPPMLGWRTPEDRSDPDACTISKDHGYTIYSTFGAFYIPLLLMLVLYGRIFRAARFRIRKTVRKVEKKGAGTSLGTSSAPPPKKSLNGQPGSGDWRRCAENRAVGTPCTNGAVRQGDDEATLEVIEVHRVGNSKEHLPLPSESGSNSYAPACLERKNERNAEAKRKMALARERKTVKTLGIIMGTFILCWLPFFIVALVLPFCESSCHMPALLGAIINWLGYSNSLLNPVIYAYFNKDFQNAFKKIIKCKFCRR
# Description: Binding to 5-HT1A Receptor
# 6-week-old Sprague-Dawley (SD) rats were anesthetized in an ether container for 5 minutes, brains were separated from rats, and cortical regions were then separated from the brains of the rats. The cortical regions of the rats were put into a Tris-HCl buffer solution (50 mM, pH 7.4) and homogenized, and the homogenate was centrifuged twice at 4? at a rotary speed of 50,000 g to obtain a precipitate (membrane protein). The precipitate was put into a buffer solution, and homogenized, which was used later as a protein source. 2 nM [3H]-8-OH-DPAT was used as a radioactive isotope, and 10 uM serotonin was used to remove non-specific bindings. 25 ul of the compound, 100 ul of an aqueous radioactive isotope solution, and 100 ul of the protein source were put together, and kept at 25° C. for 1 hour. The resulting mixture was filtered with a membrane filter in a 96-well harvester when the 96-well plate reaction was completed. The competitivity of the compound to [3H]-8-OH-DPAT was determined by taking the membrane filter and measuring the radioactivity of the membrane filter in a scintillation counter, and an IC50 value was determined by measuring the increasing concentration of the compound. The specific reaction of the compound accounted for 90% or more. The general experiments were carried out according to the method by Middlemiss et al. (1984, Eur. J. Pharmacol.).
# 5-HT2A receptor = 5-HT2A receptor (Rattus norvegicus (Rat), UniProt P14842); assay: Binding to 5-HT2A receptor ([3H]-Ketanserin, rat cortical membranes); set-up: species or system Sprague-Dawley (SD) rats; settings: for inhibition at 1 µM: 1 h, read-out: 5-HT2A: Suppression; for IC50: 0.5 nM [3H]-Ketanserin, read-out: 5-HT2A: IC50 (Concentration required to be 50% suppressed)
# Chain of 5-HT2A receptor (P14842 whole entry): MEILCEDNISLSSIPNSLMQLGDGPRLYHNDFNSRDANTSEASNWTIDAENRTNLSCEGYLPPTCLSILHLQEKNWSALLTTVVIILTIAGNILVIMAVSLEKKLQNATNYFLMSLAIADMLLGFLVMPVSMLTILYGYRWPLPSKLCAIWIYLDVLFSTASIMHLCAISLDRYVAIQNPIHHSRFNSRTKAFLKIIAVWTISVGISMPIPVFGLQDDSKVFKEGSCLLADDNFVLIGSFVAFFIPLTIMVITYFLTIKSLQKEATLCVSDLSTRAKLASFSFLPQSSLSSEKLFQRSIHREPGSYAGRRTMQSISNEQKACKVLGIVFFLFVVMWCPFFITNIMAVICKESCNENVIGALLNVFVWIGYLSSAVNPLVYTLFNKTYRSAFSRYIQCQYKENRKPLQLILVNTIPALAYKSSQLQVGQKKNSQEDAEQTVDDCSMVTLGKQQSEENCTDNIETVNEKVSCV
# Description: Binding to 5-HT2A Receptor
# 6-week-old Sprague-Dawley (SD) rats were anesthetized in an ether container for 5 minutes, brains were separated from rats, and cortical regions were then separated from the brains of the rats. The cortical regions of the rats were put into a Tris-HCl buffer solution (50 mM, pH 7.7) and homogenized, and the homogenate was centrifuged twice at 4° C. at a rotary speed of 50,000 g to obtain a precipitate (membrane protein). The precipitate was put into a buffer solution, and homogenized, which was used later as a protein source. 0.5 nM [3H]-Ketanserin was used as a radioactive isotope, and 10 uM serotonin was used to remove non-specific bindings. 25 ul of the compound, 100 ul of an aqueous radioactive isotope solution, and 100 ul of the protein source were put together, and kept at 25° C. for 1 hour. The resulting mixture was filtered with a membrane filter in a 96-well harvester when the 96-well plate reaction was completed. The competitivity of the compound to [3H]-Ketanserin was determined by taking the membrane filter and measuring the radioactivity in a scintillation counter, and an IC50 value was determined by measuring the increasing concentration of the compound. The specific reaction of the compound accounted for 90% or more. The general experiments were carried out according to the method by Leysen et al. (1982, Eur. J. Pharmacol).
# male ICR mouse [2] = assay: Formalin test - late phase in mouse; assay type: in vivo; settings: po, unit inferred
# Description: 3. Formalin Test—Late Phase in Mouse
# A formalin test is another model for measuring an analgesic effect of drugs. […] These pain behaviors have a biphasic pattern, and therefore they are divided into an early-phase behavior within […] after the formalin administration; and a late-phase behavior up to 10 to 60 minutes. The medicinal effect observed in the formalin test-late phase means an analgesic effect of the test material in the inflammatory pain model, and also becomes a measure that may predict the medicinal effects in the neuropathic pain model (Vissers K et. al, 2003). A test material was orally administered to a male ICR mouse weighing 30 to 35 g. After 1 hour of the oral administration, 20 μl of a 2.5% formalin solution was subcutaneously injected into the planta surface of a mouse's hindlimb to induce pain. […] The analgesic effect of the test material is represented by the ‘suppression ratio of pain response’ {[(Pain response time of Vehicle-administered group−Pain response time of Test material-administered group)/(Pain response time of Vehicle-administered group)]×100%}, or ‘50% of Effective amount (ED50; an amount of a test material that is required to suppress 50% of pain behaviors) of Test material’. The ED50 (median effective dose) was determined by calculating the suppression ratio of pain response in at least three doses of test materials and subjecting to the linear regression.
Compound,"inhibition in vivo at 10 mg/kg (male ICR mouse [1]; po, 1 h) [%]",inhibition at 1 µM (5-HT1A receptor) [%],inhibition at 1 µM (5-HT2A receptor) [%],IC50 (5-HT1A receptor) [nM],IC50 (5-HT2A receptor) [nM],also measured
"NC(=O)OC(CCN1CCN(c2ccccc2)CC1)c1cccc([N+](=O)[O-])c1 (centres unmarked) [Example 4, Carbamic acid 1-(3-nitro-phenyl)-3-(4-phenyl-piperazin-1-yl)-propyl ester]",48,74.6,86.4,–,–,–
"CC(C)(C)c1ccc(C(CCN2CCN(c3ccccc3)CC2)OC(N)=O)cc1 (centres unmarked) [Example 5, Carbamic acid 1-(4-tert-butyl-phenyl)-3-(4-phenyl-piperazin-1-yl)-propyl ester]",62,44.4,98.8,–,–,–
"NC(=O)OC(CCN1CCN(c2ccccc2)CC1)c1cccc(Cl)c1 (centres unmarked) [Example 7, Carbamic acid 1-(3-chloro-phenyl)-3-(4-phenyl-piperazin-1-yl)-propyl ester]",59,76.4,93.7,–,–,–
"COc1ccc(C(CCN2CCN(c3ccccc3)CC2)OC(N)=O)cc1 (centres unmarked) [Example 8, Carbamic acid 1-(4-methoxy-phenyl)-3-(4-phenyl-piperazin-1-yl)-propyl ester]",43,67.7,82,–,–,–
"Cc1ccc(C(CCN2CCN(c3ccccc3)CC2)OC(N)=O)cc1 (centres unmarked) [Example 10, Carbamic acid 3-(4-phenyl-piperazin-1-yl)-1-p-tolyl-propyl ester]",–,59.6,85.6,–,–,–
"NC(=O)OC(CCN1CCN(c2ccc(F)cc2)CC1)c1ccccc1 (centres unmarked) [Example 21, Carbamic acid 3-[4-(4-fluoro-phenyl)-piperazin-1-yl]-1-phenyl-propyl ester]",–,–,–,1050,64.5,inhibition in vivo at 10 mg/kg (male ICR mouse [1]): 88%
"NC(=O)OC(CCN1CCN(c2ccc(Cl)cc2)CC1)c1ccccc1 (centres unmarked) [Example 22, Carbamic acid 3-[4-(4-chloro-phenyl)-piperazin-1-yl]-1-phenyl-propyl ester]",–,–,–,1860,264,–
"NC(=O)OC(CCN1CCN(c2ccccn2)CC1)c1ccccc1 (centres unmarked) [Example 25, Carbamic acid 1-phenyl-3-(4-pyridin-2-yl-piperazin-1-yl)-propyl ester]",–,–,–,338,448,–
"COc1cccc(N2CCN(CCC(OC(N)=O)c3ccccc3)CC2)c1 (centres unmarked) [Example 26, Carbamic acid 3-[4-(3-methoxy-phenyl)-piperazin-1-yl]-1-phenyl-propyl ester]",–,–,–,80.8,502,–
"COc1ccccc1N1CCN(CCC(OC(N)=O)c2ccccc2)CC1 (centres unmarked) [Example 27, Carbamic acid 3-[4-(2-methoxy-phenyl)-piperazin-1-yl]-1-phenyl-propyl ester]",–,–,–,97.6,164,ED50 (male ICR mouse [1]; po): 7.8 mg/kg
"NC(=O)OC(CCN1CCN(c2cccc(Cl)c2)CC1)c1ccccc1 (centres unmarked) [Example 36, Carbamic acid 3-[4-(3-chloro-phenyl)-piperazin-1-yl]-1-phenyl-propyl ester]",–,–,–,93.8,61.5,ED50 (male ICR mouse [1]; po): 17.5 mg/kg
"Cc1ccccc1N1CCN(CCC(OC(N)=O)c2ccccc2)CC1 (centres unmarked) [Example 37, Carbamic acid 1-phenyl-3-(4-o-tolylpiperazin-1-yl)-propyl ester]",–,–,–,–,–,ED50 (male ICR mouse [1]; ip): 1.96 mg/kg; ED50 (male ICR mouse [2]): 42.4 mg/kg
"NC(=O)OC(CCN1CCN(c2cccc(C(F)(F)F)c2)CC1)c1ccccc1 (centres unmarked) [Example 39, Carbamic acid 1-phenyl-3-[4-(3-trifluoromethyl-phenyl)-piperazin-1-yl]-propyl ester]",–,–,–,12.6,660,–
"COc1ccccc1N1CCN(CCC(OC(N)=O)c2ccc(F)cc2)CC1 (centres unmarked) [Example 78, Carbamic acid 1-(4-fluoro-phenyl)-3-[4-(2-methoxy-phenyl)-piperazin-1-yl]-propyl ester]",34,79,71.5,–,–,–
"NC(=O)OC(CCN1CCN(c2ccc([N+](=O)[O-])cc2)CC1)c1ccc(F)cc1 (centres unmarked) [Example 79, Carbamic acid 1-(4-fluoro-phenyl)-3-[4-(4-nitro-phenyl)-piperazin-1-yl]-propyl ester]",70,29.6,29.6,–,–,–
"Cc1ccccc1N1CCN(CCC(OC(N)=O)c2ccc(F)cc2)CC1 (centres unmarked) [Example 80, Carbamic acid 1-(4-fluoro-phenyl)-3-(4-o-tolyl-piperazin-1-yl)-propyl ester]",29,75.3,76.8,–,–,–
"NC(=O)OC(CCN1CCN(c2ccc(F)cc2)CC1)c1ccc(F)cc1 (centres unmarked) [Example 81, Carbamic acid 1-(4-fluoro-phenyl)-3-[4-(4-fluoro-phenyl)-piperazin-1-yl]-propyl ester]",52,60.9,93.9,–,–,–
"NC(=O)OC(CCN1CCN(C(c2ccc(F)cc2)c2ccc(F)cc2)CC1)c1ccccc1 (centres unmarked) [Example 93, Carbamic acid 3-{4-[bis-(4-fluoro-phenyl)-methyl]-piperazin-1-yl}-1-phenyl-propyl ester]",–,–,–,> 10000,940,–
"COc1ccccc1N1CCN(CCCC(OC(N)=O)c2ccccc2)CC1 (centres unmarked) [Example 95, Carbamic acid 4-[4-(2-methoxy-phenyl)-piperazin-1-yl]-1-phenyl-butyl ester]",–,–,–,5.82,1500,–
"NC(=O)OC(CCCN1CCN(c2ccccn2)CC1)c1ccccc1 (centres unmarked) [Example 96, Carbamic acid 1-phenyl-4-(4-pyridin-2-yl-piperazin-1-yl)-butyl ester]",–,–,–,20.4,3140,–
"NC(=O)OC(CCCN1CCN(c2ncccc2Cl)CC1)c1ccccc1 (centres unmarked) [Example 97, Carbamic acid 4-[4-(3-chloro-pyridin-2-yl)-piperazin-1-yl]-1-phenyl-butyl ester]",–,–,–,181,519,–
